In patent US7902373B2 (Pfizer Inc, priority 2006, dated 2011):

What follows are compounds tested against human recombinant H-PGDS (Homo sapiens, UniProt O60760) (assay: Fluorescence intensity h-PGDS TBA enzyme assay). Settings: Examples up to 622 (and 3a, 3b).
Sequence of human recombinant H-PGDS (O60760 whole entry): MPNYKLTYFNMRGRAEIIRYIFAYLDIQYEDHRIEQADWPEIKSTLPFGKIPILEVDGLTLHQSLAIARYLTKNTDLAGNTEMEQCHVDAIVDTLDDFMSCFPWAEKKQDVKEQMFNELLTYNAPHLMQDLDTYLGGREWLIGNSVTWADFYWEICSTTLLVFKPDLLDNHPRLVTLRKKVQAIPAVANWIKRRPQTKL
Assay type: biochemical
In the case of `O=C(NC1CCN(c2ccc(C(=O)NCC3CCCCC3)nn2)CC1)c1ccc(-c2cccc(F)c2)nc1` [Example 163, N-(Cyclohexylmethyl)-6-[4-({[6-(3-fluorophenyl)pyridin-3-yl]carbonyl}amino)piperidin-1-yl]pyridazine-3-carboxamide], the IC50 is reported as 14.5 nM.
`O=C(NC1CCN(c2ccc(C(=O)NCCN3CCNC3=O)nn2)CC1)c1ccc(-c2cccc(F)c2)nc1` [Example 164, 6-[4-({[6-(3-Fluorophenyl)pyridin-3-yl]carbonyl}amino)piperidin-1-yl]-N-[2-(2-oxoimidazolidin-1-yl)ethyl]pyridazine-3-carboxamide] gave an IC50 of 0.422 nM.
Work on `O=C(NC1CCN(c2ncccc2C(=O)N2CCCC2)CC1)c1ccc(-c2cccc(F)c2)nc1` [Example 165, 6-(3-Fluorophenyl)-N-{1-[3-(pyrrolidin-1-ylcarbonyl)pyridin-2-yl]piperidin-4-yl}nicotinamide] yielded an IC50 of 1.16 nM.
`O=C(NC1CCN(c2ncc3ccccc3n2)CC1)c1ccc(-c2cccc(F)c2)nc1` [Example 166, 6-(3-Fluorophenyl)-N-(1-quinazolin-2-ylpiperidin-4-yl)nicotinamide] gave an IC50 of 3.44 nM.
Work on `COC(=O)c1cnc(N2CCC(NC(=O)c3ccc(-c4cccc(F)c4)nc3)CC2)cn1` [Example 167, Methyl 5-[4-({[6-(3-fluorophenyl)pyridin-3-yl]carbonyl}amino)piperidin-1-yl]pyrazine-2-carboxylate] yielded an IC50 of 3.13 nM.
Compound `Cc1cc(NC(=O)c2cccnc2N2CCC(NC(=O)c3ccc(-c4cccc(F)c4)nc3)CC2)no1` [Example 168, 2-[4-({[6-(3-Fluorophenyl)pyridin-3-yl]carbonyl}amino)piperidin-1-yl]-N-(5-methylisoxazol-3-yl)nicotinamide] has an IC50 of 2.53 nM.
Work on `CCc1cnc(CC)c(N2CCC(NC(=O)c3ccc(-c4cccc(F)c4)nc3)CC2)n1` [Example 169, N-[1-(3,6-Diethylpyrazin-2-yl)piperidin-4-yl]-6-(3-fluorophenyl)nicotinamide] yielded an IC50 of 23.2 nM.
With `NC(=O)c1cc2c(nc1N1CCC(NC(=O)c3ccc(-c4cccc(F)c4)nc3)CC1)CCC2` [Example 170, 2-[4-({[6-(3-Fluorophenyl)pyridin-3-yl]carbonyl}amino)piperidin-1-yl]-6,7-dihydro-5H-cyclopenta[b]pyridine-3-carboxamide] the IC50 was 1.77 nM.
With `O=C(NC1CCN(c2ncc3cccnc3n2)CC1)c1ccc(-c2cccc(F)c2)nc1` [Example 171, 6-(3-Fluorophenyl)-N-(1-pyrido[2,3-d]pyrimidin-2-ylpiperidin-4-yl)nicotinamide] the IC50 was 1.41 nM.
Compound `O=C(NC1CCN(c2nccc(-c3cccc(F)c3)n2)CC1)c1ccc(-c2cccc(F)c2)nc1` [Example 172, 6-(3-Fluorophenyl)-N-{1-[4-(3-fluorophenyl)pyrimidin-2-yl]piperidin-4-yl}nicotinamide] has an IC50 of 35 nM.
For `COc1cc2ncc(N3CCC(NC(=O)c4ccc(-c5cccc(F)c5)nc4)CC3)nc2cc1OC` [Example 173, N-[1-(6,7-Dimethoxyquinoxalin-2-yl)piperidin-4-yl]-6-(3-fluorophenyl)nicotinamide], the IC50 was 16 nM.
In the case of `O=C(NC1CCN(c2ncc3ccc(F)cc3n2)CC1)c1ccc(-c2cccc(F)c2)nc1` [Example 174, 6-(3-Fluorophenyl)-N-[1-(7-fluoroquinazolin-2-yl)piperidin-4-yl]nicotinamide], the IC50 is reported as 8.97 nM.
Work on `Cc1nc(N2CCC(NC(=O)c3ccc(-c4cccc(F)c4)nc3)CC2)ccc1C#N` [Example 175, N-[1-(5-Cyano-6-methylpyridin-2-yl)piperidin-4-yl]-6-(3-fluorophenyl)nicotinamide] yielded an IC50 of 5.4 nM.
With `Cc1nc(N)c2nc(N3CCC(NC(=O)c4ccc(-c5cccc(F)c5)nc4)CC3)cnc2n1` [Example 176, N-[1-(4-Amino-2-methylpteridin-6-yl)piperidin-4-yl]-6-(3-fluorophenyl)nicotinamide] the IC50 was 0.759 nM.
`COc1cccc(-c2ccnc(N3CCC(NC(=O)c4ccc(-c5cccc(F)c5)nc4)CC3)n2)c1` [Example 177, 6-(3-Fluorophenyl)-N-{1-[4-(3-methoxyphenyl)pyrimidin-2-yl]piperidin-4-yl}nicotinamide] showed an IC50 of 68.4 nM.
For `COc1ccc2ncnc(N3CCC(NC(=O)c4ccc(-c5cccc(F)c5)nc4)CC3)c2c1` [Example 178, 6-(3-Fluorophenyl)-N-[1-(6-methoxyquinazolin-4-yl)piperidin-4-yl]nicotinamide], the IC50 was 0.735 nM.
`CCOc1cc(CN2CCC(NC(=O)c3ccc(-c4cccc(F)c4)nc3)CC2)ccc1O` [Example 179, N-(1-(3-Ethoxy-4-hydroxybenzyl)piperidin-4-yl)-6-(3-fluorophenyl)nicotinamide] gave an IC50 of 2.26 nM.
In the case of `Cc1cn(CCN2CCC(NC(=O)c3ccc(-c4cccc(F)c4)nc3)CC2)c(=O)[nH]c1=O` [Example 180, 6-(3-Fluorophenyl)-N-{1-[2-(5-methyl-2,4-dioxo-34-dihydropyrimidin-1(2H)-yl)ethyl]piperidin-4-yl}nicotinamide], the IC50 is reported as 0.372 nM.
`O=C(NC1CCN(Cc2cccc(-c3ncccn3)c2)CC1)c1ccc(-c2cccc(F)c2)nc1` [Example 181, 6-(3-Fluorophenyl)-N-[1-(3-pyrimidin-2-ylbenzyl)piperidin-4-yl]nicotinamide] gave an IC50 of 3.4 nM.
For `O=C(NC1CCN(Cc2c[nH]nc2-c2ccccc2)CC1)c1ccc(-c2cccc(F)c2)nc1` [Example 182, 6-(3-Fluorophenyl)-N-{1-[(3-phenyl-1H-pyrazol-4-yl)methyl]piperidin-4-yl}nicotinamide], the IC50 was 0.424 nM.
For `O=C(NC1CCN(Cc2c[nH]c3cc(F)ccc23)CC1)c1ccc(-c2cccc(F)c2)nc1` [Example 183, N-{1-[(6-Fluoro-1H-indol-3-yl)methyl]piperidin-4-yl}-6-(3-fluorophenyl)nicotinamide], the IC50 was 1.12 nM.
For `COc1cc(CN2CCC(NC(=O)c3ccc(-c4cccc(F)c4)nc3)CC2)ccc1OC(C)C` [Example 184, 6-(3-Fluorophenyl)-N-[1-(4-isopropoxy-3-methoxybenzyl)piperidin-4-yl]nicotinamide], the IC50 was 3.67 nM.
For `CCn1cc(CN2CCC(NC(=O)c3ccc(-c4cccc(F)c4)nc3)CC2)cn1` [Example 185, N-{1-[(1-Ethyl-1H-pyrazol-4-yl)methyl]piperidin-4-yl}-6-(3-fluorophenyl)nicotinamide], the IC50 was 11 nM.
In the case of `O=C(NC1CCN(CC2CCC=CO2)CC1)c1ccc(-c2cccc(F)c2)nc1` (stereo not drawn) [Example 186, N-[1-(3,4-Dihydro-2H-pyran-2-ylmethyl)piperidin-4-yl]-6-(3-fluorophenyl)nicotinamide], the IC50 is reported as 1.79 nM.
`O=C(NC1CCN(Cc2c[nH]nc2-c2ccc(F)cc2)CC1)c1ccc(-c2cccc(F)c2)nc1` [Example 187, 6-(3-Fluorophenyl)-N-(1-{[3-(4-fluorophenyl)-1H-pyrazol-4-yl]methyl}piperidin-4-yl)nicotinamide] gave an IC50 of 2.59 nM.
`O=C(NC1CCN(Cc2cccc(-c3ccccn3)c2)CC1)c1ccc(-c2cccc(F)c2)nc1` [Example 188, 6-(3-Fluorophenyl)-N-[1-(3-pyridin-2-ylbenzyl)piperidin-4-yl]nicotinamide] showed an IC50 of 2.25 nM.
For `O=C(NC1CCN(Cc2ccnc3ccccc23)CC1)c1ccc(-c2cccc(F)c2)nc1` [Example 189, 6-(3-Fluorophenyl)-N-[1-(quinolin-4-ylmethyl)piperidin-4-yl]nicotinamide], the IC50 was 0.502 nM.
`O=C(NC1CCN(Cc2c[nH]cn2)CC1)c1ccc(-c2cccc(F)c2)nc1` [Example 190, 6-(3-Fluorophenyl)-N-[1-(1H-imidazol-5-ylmethyl)piperidin-4-yl]nicotinamide] showed an IC50 of 1.83 nM.
Compound `Cn1cc(Cl)c(CN2CCC(NC(=O)c3ccc(-c4cccc(F)c4)nc3)CC2)n1` [Example 191, N-{1-[(4-Chloro-1-methyl-1H-pyrazol-3-yl)methyl]piperidin-4-yl}-6-(3-fluorophenyl)nicotinamide] has an IC50 of 0.171 nM.
`COc1cc(CN2CCC(NC(=O)c3ccc(-c4cccc(F)c4)nc3)CC2)ccc1F` [Example 192, N-[1-(4-Fluoro-3-methoxybenzyl)piperidin-4-yl]-6-(3-fluorophenyl)nicotinamide] showed an IC50 of 0.701 nM.
`O=C(NC1CCN(Cc2ccc(F)c(F)c2)CC1)c1ccc(-c2cccc(F)c2)nc1` [Example 193, N-[1-(3,4-difluorobenzyl)piperidin-4-yl]-6-(3-fluorophenyl)nicotinamide] gave an IC50 of 0.768 nM.
With `O=C(CN1CCC(NC(=O)c2ccc(-c3cccc(F)c3)nc2)CC1)c1ccccc1` [Example 194, 6-(3-Fluorophenyl)-N-[1-(2-oxo-2-phenylethyl)piperidin-4-yl]nicotinamide] the IC50 was 3.5 nM.
For `Cn1nc(-c2ccccc2)c(CN2CCC(NC(=O)c3ccc(-c4cccc(F)c4)nc3)CC2)c1Cl` [Example 195, N-{1-[(5-Chloro-1-methyl-3-phenyl-1H-pyrazol-4-yl)methyl]piperidin-4-yl}-6-(3-fluorophenyl)nicotinamide], the IC50 was 0.194 nM.
With `Cn1cc(CN2CCC(NC(=O)c3ccc(-c4cccc(F)c4)nc3)CC2)cn1` [Example 196, 6-(3-Fluorophenyl)-N-{1-[(1-methyl-1H-pyrazol-4-yl)methyl]piperidin-4-yl}nicotinamide] the IC50 was 1.35 nM.
`O=C(NC1CCN(Cc2cccc3cccnc23)CC1)c1ccc(-c2cccc(F)c2)nc1` [Example 197, 6-(3-Fluorophenyl)-N-[1-(quinolin-8-ylmethyl)piperidin-4-yl]nicotinamide] showed an IC50 of 0.578 nM.
For `O=C(NC1CCN(Cc2cccc(-c3cnccn3)c2)CC1)c1ccc(-c2cccc(F)c2)nc1` [Example 198, 6-(3-Fluorophenyl)-N-[1-(3-pyrazin-2-ylbenzyl)piperidin-4-yl]nicotinamide], the IC50 was 1.04 nM.
`CCCCc1nc(CN2CCC(NC(=O)c3ccc(-c4cccc(F)c4)nc3)CC2)c[nH]1` [Example 199, N-{1-[(2-Butyl-1H-imidazol-4-yl)methyl]piperidin-4-yl}-6-(3-fluorophenyl)nicotinamide] gave an IC50 of 2.7 nM.
In the case of `O=C(NC1CCN(Cc2ccc3c(c2)OCCCO3)CC1)c1ccc(-c2cccc(F)c2)nc1` [Example 200, N-[1-(3,4-Dihydro-2H-15-benzodioxepin-7-ylmethyl)piperidin-4-yl]-6-(3-fluorophenyl)nicotinamide], the IC50 is reported as 1.61 nM.
`O=C(NC1CCN(Cc2ccc(-c3ccccn3)cc2)CC1)c1ccc(-c2cccc(F)c2)nc1` [Example 201, 6-(3-Fluorophenyl)-N-[1-(4-pyridin-2-ylbenzyl)piperidin-4-yl]nicotinamide] was tested, and the IC50 was 1.93 nM.
